{
  "source": "patent US9428732B2",
  "about": "“Compositions and methods for differentiating pluripotent stem cells into primitive blood cells and uses thereof” (Primorigen Biosciences, Inc., priority 2011, dated 2016)",
  "format_in_all_cases": "cell-based, human",
  "key": {"[1]": {"tested_on": "iPS-derived hematopoietic progenitors and phenotypic HSCs", "experiment": "Differentiation into lymphocytes on OP9 and OP9delta feeder lines, FACS", "settings": "cells generated from iPS cells with DEAB at 10 uM; 14 to 21 days", "protocol": "(§1) The differentiation cultures were trypsinized at the indicated time points and single-cell suspensions were generated following trypsinization. For the Colony Forming Unit (CFU) assays using methyl cellulose cultures, 25% of the cells were plated in 2 ml of MethoCult H4435 (STEMCELL Technologies, Vancouver, BC) in six-well plates. Alternatively, sorted CD45+, CD43+, CD34+, 7AAD-cells were sorted and plated at 500 cells per 2 ml Methocult media. Cells were incubated for 14 days in a humidified incubator at 37° C. with 5% CO2 and evaluated for colonies by bright-field microscopy (Zeiss (Oberkochen, Germany, www.zeiss.com) Axiovert 200 with a Zeiss Axiocam), Cells were resuspended in PBS supplemented with 2% FBS. For the lymphoid myeloid differentiation assays, either CD45+, CD43+, CD34+, 7AAD-hematopoietic progenitors, or CD45+, CD43+, CD34+, CD38−, CD90+, CD45RA− phenotypic HSCs were plated at 20-40 cells per well onto OP9 and OP9delta feeder lines for B-cell and T-cell differentiation, respectively, as previously described (Nozad Charoudeh H, Tang Y, Cheng M, Cilio C M, Jacobsen S E, Sitnicka E., Identification of an NK/T cell-restricted progenitor in adult bone marrow contributing to bone marrow- and thymic-dependent NK cell, Blood, 2010 Jul. 15; 116(2):183-92. NK cell differentiation as well as myeloid cell differentiation was also detected in this differentiation system. […]"}, "[2]": {"tested_on": "pluripotent stem cell differentiation cultures", "experiment": "Beating cardiomyocyte colonies in differentiation cultures", "settings": "cultures using DEAB; data not shown", "from_the_text": "Within the mesoderm lineage we then quantified the expression of markers of the paraxial (FOXC1) and lateral plate (FOXF1, hematopoietic and cardiac precursor) mesoderm. […] This is likely the result of anterior lateral plate mesoderm formation (precursors of the heart). We saw a dramatic upregulation of the cardiogenic mesoderm marker NKX2.5 in the DMSO control at this time point (FIG. 6G, Day 12 onward)."}, "[3]": {"tested_on": "hematopoietic progenitor cells differentiated from iPS cells", "experiment": "Colony Forming Unit (CFU) assay in methyl cellulose with DEAB", "settings": "10 µM DEAB; 14 days MethoCult", "protocol": "as §1"}},
  "data": [
    {"smiles": "CCN(CC)c1ccc(C=O)cc1", "note": "[DEAB, 4-diethylaminobenzaldehyde]", "values": [
      {"measurement": "ability of generated HSCs to differentiate into lymphoid cells (B, NK, T)", "setting": "[1]", "value": "capable of differentiating to each type of tested lymphocyte"},
      {"measurement": "numbers of beating cardiomyocytes colonies", "setting": "[2]", "value": "significantly reduced numbers"},
      {"measurement": "levels of all four major CFU assay types (CFU-G, CFU-M, CFU-GEMM, BFU-E)", "setting": "[3]", "value": "measurable levels"},
      {"measurement": "total number of colonies vs cells not differentiated in the presence of DEAB (DMSO control)", "setting": "[3]", "value": "more than double"}
    ]}
  ]
}
